What was measured:
[1] = tested on: sympathetically-evoked functional responses; assay: Sympathetically-evoked functional responses in anesthetized dogs; format: in vivo, beagle dogs
mice = assay: Clinical observations, behavioral tests and rectal temperature after single oral dose; format: in vivo; settings: 30, 100, 300 mg/kg single oral, from 60 min
Experimental: A single oral dose of vehicle or Nepicastat formulation was administered by gavage to each mouse using a rodent intubator. The oral route was selected because it is a proposed clinical route of administration. Dose volumes were calculated on the basis of individual body weights recorded before dosing (body weight data are not tabulated in this report). Food and water were withheld from the mice 2.5 to 3.5 hours before dosing, instead of 1.5 hours as specified in the protocol.
Clinical observations were recorded before dosing. Beginning 60 minutes after dosing, mice in each treatment group were evaluated in groups of up to 3 over an interval of approximately 10 minutes each for clinical observations and protocol-specified behavioral tests.^1 One mouse in the 30-mg/kg group and 1 mouse in the 100-mg/kg group died after dosing and they were removed from the study. Surviving mice were euthanatized and removed from the study at the end of the observation/testing period.
Mice in groups of 6 males each were administered single oral doses of 0 (vehicle), 30, 100, or 300 mg/kg of nepicastat by gavage. Clinical observations and behavioral tests were initiated 60 minutes after administration of the test formulation. At the end of the observation period, all surviving mice were euthanatized and removed from the study.

[2] = tested on: blood pressure, heart rate, motor activity; assay: Radio-telemetry blood pressure, heart rate, motor activity in normotensive rats, 7 days; format: in vivo, normotensive Wistar rats (Crl:COBS(WI)BR)
Experimental: Male Crl:COBS(WI)BR rats of 15 weeks old were used. Twenty-four rats were chronically implanted with telemetry implants (TA11PA-C40, Data Sciences, Inc., St. Paul, Minn.) for measurement of arterial blood pressure, heart rate and motor activity. The rat was anesthetized with pentobarbital sodium (60 mg/kg, ip) and its abdomen shaved. Under aseptic conditions, an incision was made on midline. The abdominal aorta was exposed, and cannulated with the catheter of a telemetry transmitter unit. After the transmitter was sutured to the abdominal musculature, the skin was closed. Each rat was allowed to recover for at least 2 weeks before being subjected to drug administration. Three days prior to the start of the experiment, the rats were randomly divided into 4 treatment groups: Vehicle (p.o.), Hydralazine (10 mg/kg, p.o.), nepicastat (30 mg/kg, p.o.), nepicastat (100 mg/kg, p.o.).
Systolic blood pressure (SBP), diastolic blood pressure (DBP), mean blood pressure (MBP), heart rate (HR), and motor activity (MA) were monitored. After the pre-dose values for these parameters were established, respective groups of rats received a 7 day daily treatment of vehicle, nepicastat or hydralazine.
Both nepicastat and hydralazine were prepared in water with traces of Tween 80. All doses were given orally to the rat in 10 ml/kg and were expressed as free base equivalents.
A computerized data collection system was used to continuously collect data on SBP, DBP, MBP, HR, and MA. Data on each rat were collected every 5 min. for 10 sec. These were then averaged hourly and standard errors of the mean (SE) calculated. In this report, only data on MBP, HR and MA were presented. […] Body weights were recorded daily.

[3] = tested on: aortic contractile response to phenylephrine; assay: Aortic contractile response in vitro to phenylephrine after 21 days treatment; format: in vivo, SHR; settings: 10 mg/kg p.o. daily for 21 days
[4] = tested on: dopamine/norepinephrine ratio; assay: Dose response of tissue dopamine/norepinephrine ratio 6 hours after a single oral dose; format: in vivo, SHR
[5] = tested on: tissue norepinephrine and dopamine levels; assay: Tissue catecholamines in iodine-deficient rats after 10 days b.i.d. dosing; format: in vivo, Sprague-Dawley rats; settings: day 10; for dopamine/norepinephrine ratio vs vehicle, mesenteric artery: hydrochloride
Experimental: Male Sprague-Dawley rats, weighing 180-200 grams, were fed an iodine deficient diet (Purina, 5891C, Lot 1478, 0.066±0.042 mg iodine/kg sample) ad libitum 14 days prior to treatment. Animals were weighed and randomly assigned to one of the following treatment groups (n=12 per group): Nepicastat at 2.0 mg/kg, Nepicastat at 6.2 mg/kg, R, Methimazole at 1 mg/kg, or vehicle at 1 ml/kg. Each group of rats was dosed orally in the evening and the following morning, approximately 12 hours apart, for 10 consecutive days.
At four hours after the second dose, on day 10, rats were anesthetized with halothane, decapitated, and the cortex, striatum, and mesenteric artery were harvested and weighed. Tissue samples were not harvested from the methimazole groups as they only served as positive controls for determination of thyroid function. The mesenteric artery, cortex, and striatum were immediately placed in 0.4M iced perchloric acid and analyzed for norepinephrine and dopamine levels the same day using HPLC.
To statistically evaluate changes in T3 and T4 levels, a change from baseline was calculated from the day-3 time point. A non-parametric two-way within subject analysis of variance (ANOVA) was conducted. Also a one-way ANOVA was performed to detect if a significant difference from control occurred. Pairwise analyses between controls and each treatment group were carried out using Fisher's LSD strategy to control the experiment-wise error rate. For statistical analysis of catecholamine levels, a one-way ANOVA with factor DOSE was performed. Pairwise analyses between treated and controls at each dose were carried out using Fisher's LSD strategy to control the experiment-wise error rate.

Question: Which results are given for `Cl.NCc1c[nH]c(=S)n1[C@H]1CCc2c(F)cc(F)cc2C1` [nepicastat, (S)-5-Aminomethyl-1-(5,7-difluoro-1,2,3,4-tetrahydronaphth-2-yl)-2,3-dihydro-2-thioxo-1H-imidazole hydrochloride]?
Answer: heart rate response to i.v. tyramine challenge ([1]; 10 mg/kg/d for 4.5 days): significantly reduced the increase in heart rate; inhibition of responses to renal nerve stimulation and carotid artery occlusion ([1]; 30 mg/kg intraduodenally, up to 5 hours): did not significantly inhibit; clinical or gross behavior changes (mice): No treatment-related clinical or gross behavior changes; rectal body temperature vs vehicle-control (mice): Lower body temperatures; peak decrease in blood pressure (peak hypotensive effect) ([2]; 30 mg/kg/d po, day 2 at hour 13): −10 mmHg; peak antihypertensive response on day 1 ([2]; 100 mg/kg po, 22 hr after dosing): −11 mmHg; bradycardic response ([2]; 100 mg/kg, day 2, 3 hours after dosing): −100 b/mm; effect on HR ([2]; nepicastat 30 and 100 mg/kg (day 1), hydralazine 10 mg/kg (throughout)): did not consistently affect HR on day 1; aortic phenylephrine responsiveness [3]: restored phenylephrine responsiveness; dose with significant change in dopamine/norepinephrine ratio, cerebral cortex [4]: 10 mg/kg; dose with significant change in dopamine/norepinephrine ratio, left ventricle [4]: 3.0 mg/kg; dose with significant change in dopamine/norepinephrine ratio, mesenteric artery [4]: 0.3 mg/kg; norepinephrine levels vs vehicle, cortex ([5]; 2.0 and 6.2 mg/kg b.i.d.): not significantly (p>0.05) different; norepinephrine levels vs vehicle, mesenteric artery ([5]; 2.0 and 6.2 mg/kg b.i.d.): significantly (p<0.05) lower; norepinephrine levels vs vehicle, striatum ([5]; 2.0 and 6.2 mg/kg b.i.d.): marginally (p<0.10) lower; dopamine/norepinephrine ratio vs vehicle, mesenteric artery ([5]; 2.0 and 6.2 mg/kg b.i.d.): significantly (p<0.05) higher; dopamine/norepinephrine ratio vs vehicle, mesenteric artery ([5]; 2.0 and 6.2 mg/kg b.i.d., listed as 2a): significantly raised; dopamine/norepinephrine ratio vs vehicle, cortex and striatum ([5]; 2.0 and 6.2 mg/kg b.i.d., listed as RS-25560-197, hydrochloride): not significantly (p>0.05) different; dopamine levels vs vehicle, cortex, striatum and mesenteric artery ([5]; 2.0 or 6.2 mg/kg b.i.d.): not significantly (p>0.05) different

Reference: patent US20090054403A1, “Treatment of Post-Traumatic Stress Disorder” (priority 2007, published 2009)
